One assay deals with T1, Adenosine receptor A1 (Rattus norvegicus, UniProt P25099).
T1 sequence (P25099 whole entry): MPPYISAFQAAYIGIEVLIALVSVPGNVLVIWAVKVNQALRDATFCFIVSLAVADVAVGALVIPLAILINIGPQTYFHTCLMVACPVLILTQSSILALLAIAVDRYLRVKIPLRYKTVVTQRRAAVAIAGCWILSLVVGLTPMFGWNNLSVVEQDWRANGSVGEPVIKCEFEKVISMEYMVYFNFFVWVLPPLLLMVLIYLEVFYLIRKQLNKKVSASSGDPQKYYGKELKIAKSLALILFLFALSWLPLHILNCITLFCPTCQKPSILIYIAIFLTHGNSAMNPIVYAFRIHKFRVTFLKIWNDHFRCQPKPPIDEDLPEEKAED
Put plainly: Radiological Binding Assay. Particulars: pH 7.4. Here is the method: For A1 adenosine receptors, […] of protein were incubated for 60 min at 25°C with [3H]DPCPX 0.5 nM (Kd = 0.4 nM) and increasing concentrations of the compounds, in a final volume of 0.4 mL of Tris-HCl buffer. Binding reaction was terminated by dilution with ice-cold 50 mM Tris-HCl buffer, pH 7.4.For A2A and A3 adenosine receptors, […] of protein were incubated with [3H]ZM241385 6 nM (Kd = 4 nM) in the experiments involving A2A and with [3H]NECA 15 nM (Kd = 150 nM) involving A3 and the compounds to be assayed, at fixed concentration (10 µM) or at increasing concentrations of the compounds in duplicate, in a final volume of 0.4 mL of Tris-HCl buffer for 120 min at 25°C. Non-specific binding was measured in the presence of 100 µM NECA in the case of A2A and 100 µM R-PIA in the case of A3 binding assay. Bound radioactivity of all samples was measured in a liquid scintillation counter (1600 TR Packard) after the addition of 4 mL of scintillation liquid (Emulsifier-Safe; Hewlett-Packa

The target in assay [1] is Adenosine receptor A1 (rat). Put plainly: For A1 adenosine receptors, […] of protein were incubated for 60 min at 25°C with [3H]DPCPX 0.5 nM (Kd = 0.4 nM) and increasing concentrations of the compounds, in a final volume of 0.4 mL of Tris-HCl buffer. Binding reaction was terminated by dilution with ice-cold 50 mM Tris-HCl buffer, pH 7.4.For A2A and A3 adenosine receptors, […].

The target in the next assay is Adenosine receptor A2a. The assay is described as above.

As a reminder, the Ki is a dissociation constant, usually derived from enzyme kinetics or from competition with a known ligand. As to `Nc1nc(-c2ccccc2)nc2c1nnn2Cc1ccccc1F` [9-(ortho-fluorobenzyl)-2-phenyl-azaadenine (1bis)], the Ki (at Adenosine receptor A1; in assay [1]) was 0.0038 µM each time.

In the case of `O=C(Nc1nc(-c2ccccc2)nc2c1nnn2Cc1ccccc1F)C1CC1` [N-[9-(ortho-fluorobenzyl)-2-phenyl-9H-8-azapurin-6-yl]-amides (2)], the figures for the inhibition constant Ki (in assay [1]; on Adenosine receptor A2a) were 0.0092 µM and 0.292 µM, respectively.

`O=C(Nc1nc(-c2ccccc2)nc2c1nnn2Cc1ccccc1F)C1CCC1` [N-[9-(ortho-fluorobenzyl)-2-phenyl-9H-8-azapurin-6-yl]-amides (3)]: the results for the Ki (in assay [1]; at Adenosine receptor A2a) were 0.00071 µM and 0.072 µM, respectively.

For the molecule `O=C(Nc1nc(-c2ccccc2)nc2c1nnn2Cc1ccccc1F)C1CCCC1` [N-[9-(ortho-fluorobenzyl)-2-phenyl-9H-8-azapurin-6-yl]-amides (4)], the Ki turned out to be 0.0014 µM in assay [1] and 0.19 µM at Adenosine receptor A2a.

Consider `O=C(Nc1nc(-c2ccccc2)nc2c1nnn2Cc1ccccc1F)C1CCCCC1` [N-[9-(ortho-fluorobenzyl)-2-phenyl-9H-8-azapurin-6-yl]-amides (5)], for which the Ki in assay [1] was found to be 0.0021 µM; at Adenosine receptor A2a, 0.413 µM.

For the molecule `O=C(Nc1nc(-c2ccccc2)nc2c1nnn2Cc1ccccc1F)c1ccco1` [N-[9-(ortho-fluorobenzyl)-2-phenyl-9H-8-azapurin-6-yl]-amides (6)], the Ki in assay [1] was found to be 0.0055 µM; on Adenosine receptor A2a, 0.224 µM.

Turning to `O=C(Nc1nc(-c2ccccc2)nc2c1nnn2Cc1ccccc1F)c1ccoc1` [N-[9-(ortho-fluorobenzyl)-2-phenyl-9H-8-azapurin-6-yl]-amides (7)], the figures for the Ki (in assay [1]; at Adenosine receptor A2a) were 0.0023 µM and 0.091 µM, respectively.

For `O=C(Nc1nc(-c2ccccc2)nc2c1nnn2Cc1ccccc1F)c1cccc(Cl)c1` [N-[9-(ortho-fluorobenzyl)-2-phenyl-9H-8-azapurin-6-yl]-amides (8)], the affinity in assay [1] corresponds to a Ki of 0.043 µM.

`O=C(Nc1nc(-c2ccccc2)nc2c1nnn2Cc1ccccc1F)c1cccc(F)c1` [N-[9-(ortho-fluorobenzyl)-2-phenyl-9H-8-azapurin-6-yl]-amides (9)]: the affinity in assay [1], expressed as Ki, was 0.0055 µM.

`O=C(Nc1nc(-c2ccccc2)nc2c1nnn2Cc1ccccc1F)c1cccc([N+](=O)[O-])c1` [N-[9-(ortho-fluorobenzyl)-2-phenyl-9H-8-azapurin-6-yl]-amides (11)] returned a Ki in assay [1] of 0.028 µM.

Regarding `O=C(Nc1nc(-c2ccccc2)nc2c1nnn2Cc1ccccc1F)c1ccc([N+](=O)[O-])cc1` [N-[9-(ortho-fluorobenzyl)-2-phenyl-9H-8-azapurin-6-yl]-amides (12)], the Ki in assay [1] came to 0.014 µM.

`O=C(Nc1nc(-c2ccccc2)nc2c1nnn2Cc1ccccc1F)c1ccc(I)cc1` [N-[9-(ortho-fluorobenzyl)-2-phenyl-9H-8-azapurin-6-yl]-amides (13)] registered a Ki in assay [1] of 0.092 µM.

In turn, `Nc1ccc(C(=O)Nc2nc(-c3ccccc3)nc3c2nnn3Cc2ccccc2F)cc1` [N-[9-ortho-fluorobenzyl)-2-phenyl-9H-8-azapurin-6-yl]-amides (15)] gave a Ki in assay [1] of 0.018 µM.

The record behind these values is BindingDB's records for doi:10.1111/cbdd.12131 (University of Pisa, 2013).
